Assays:
[1] = Caco-2 permeability assay; assay type: in vitro ADME; details: human
Procedure: The apparent permeability coefficient (Papp) of the analytical drug was determined by liquid chromatography-tandem mass spectrometry (LC/MS/MS) through a Caco-2 cell model.
The transfer rate of drug from the apical end to the basal end was determined. 108 μL of HBSS (25 mM HEPES, pH 7.4) containing 10 μM test compound was added to the apical end of the upper chamber of Transwell (purchased from Corning) containing Caco-2 cells (purchased from ATCC) at a density of 6.86×10^5 cells/cm^2, and meanwhile, 8 μL of the sample was added, as an initial dosing-end sample (A-B), to a new 96-well plate to which 72 μL of HBSS (25 mM HEPES, pH 7.4) and 240 μL of acetonitrile (containing 100 nM alprazolam, 200 nM caffeine and 100 nM tolbutamide) had been added, and the plate was vortexed at 1000 rpm for 10 min. 300 μL of HBSS (25 mM HEPES, pH 7.4) was added to the basal end.
The transfer rate of drug from the basal end to the apical end was determined. 308 μL of HBSS (25 mM HEPES, pH 7.4) containing 10 μM test compound was added to wells of the basal end of the plate, and meanwhile, 8 μL of the sample was added, as an initial dosing-end sample (B-A), to a new 96-well plate to which 72 μL of HBSS (25 mM HEPES, pH 7.4) and 240 μL of acetonitrile (containing 100 nM alprazolam, 200 nM caffeine and 100 nM tolbutamide) had been added. The plate was vortexed at 1000 rpm for 10 min, and 100 μL of HBSS (25 mM HEPES, pH 7.4) was added to the apical end.
The transfer rate from the apical end to the basal end and the transfer rate from the basal end to the apical end need to be determined simultaneously.
At the end of the transfer cycle, 8 μL of the sample was taken from the dosing end (apical end of A-B flow and basal end of B-A flow) and added to 72 μL of HBSS (25 mM HEPES, pH 7.4) and 240 μL of acetonitrile (containing 100 nM alprazolam, 200 nM caffeine and 100 nM tolbutamide), and the mixture was added to a new 96-well plate. 80 μL of the liquid was taken directly from each of the basal end of the A-B flow and the apical end of the B-A flow, and added together with 240 μL of acetonitrile (containing 100 nM alprazolam, 200 nM caffeine and 100 nM tolbutamide) to a new 96-well plate. The plates were vortexed at 1000 rpm for 10 min. The samples were centrifuged at 4000 rpm for 30 min. 100 μL of the supernatant was transferred to a new 96-well plate. All samples were analyzed by LC-MS/MS with 100 μL of pure water.
Data were calculated using Microsoft Excel and peak areas were calculated from the chromatograms. The apparent permeability coefficient (Papp) is in cm/s and is calculated using the following formula: […]
Papp is apparent permeability (cm/s×10^−6);
The outflow ratio can be determined by the following equation: […]

[2] = In vivo pharmacokinetic experiment in rats, intragastric administration; details: SD rats, 5 mg/kg
Procedure: The drug concentrations in the plasma of the test animals (rats) at different time points after intragastric administration of the compound of the present disclosure were determined by an LC/MS/MS method. The pharmacokinetic behavior in rats of the compound of the present disclosure was studied and its pharmacokinetic profile was evaluated.
Male, healthy SD rats of SPF grade, 6-8 weeks old, 3 rats in each group.
Intragastric administration: a certain amount of compound was weighed and prepared into a 1 mg/mL white suspension by adding 0.5% by volume of hydroxypropyl methylcellulose, 0.1% by volume of tween 80 and 99.4% by volume of water.
SD rats were administered intragastrically with compound 4 or BLU-5937 at a dose of 5 mg/kg after fasting overnight.
Rats were administered intragastrically with the compound of the present disclosure. 0.2 mL of blood was collected from the jugular vein at 0.25 h, 0.5 h, 1 h, 2 h, 4 h, 8 h and 24 h after the administration, placed in a tube containing EDTA-K2, separated by centrifugation at 4° C. at 4000 rpm for 5 min to obtain plasma, which was stored at −75° C.
Determination of the content of the test compounds at different concentrations in the plasma of rats after intragastric administration: 50 μL of rat plasma at each time point after the administration was taken, 200 μL of a solution of internal standard dexamethasone (50 ng/mL) in acetonitrile was added thereto, and the mixture was vortexed for 30 s to be mixed well, centrifuged at 4° C. at 4700 rpm for 15 min. The supernatant of the plasma sample was subjected to 3-fold dilution with water, and 2.0 μL of the dilution was taken for LC/MS/MS analysis.

SMILES: CNC(=O)c1cc(F)c(-c2nc3cc(C)ccn3c2C[C@H]2CN(C(=O)OC)CCO2)c(F)c1 [BLU-5937, reference compound]
- Papp A→B at 10 μM ([1]; Caco-2, 10 μM test compound, apical to basal, pH 7.4): 2.4 ×10⁻⁶ cm/s
- efflux ratio at 10 μM ([1]; Caco-2, Papp (B-A)/Papp (A-B), read-out: Outflow ratio): 1.2
- V [2]: 1.09 L/kg
- Tmax ([2]; male, rat, plasma, po): 0.25 h
- half-life ([2]; male, rat, plasma, po): 2.9 h
- AUC(0-t) ([2]; male, rat, po, plasma): 361 ng·h/mL
- Cmax ([2]; male, rat, po, plasma): 151 ng/mL

Reference: patent US20230250095A1, “BENZIMIDAZOLE DERIVATIVES, PREPARATION METHOD THEREFOR AND MEDICAL USE THEREOF” (TUOJIE BIOTECH(SHANGHAI) CO., LTD., priority 2020, published 2023)
